System: MV-4-11 cells
Test: Gene expression microarray analysis (Affymetrix PrimeView) and GSEA
Type: cell-based, human
Design: RFU PODN (11730768_x_at) / Fold change /veh PODN (11730768_x_at) / RFU LINC00158 (11744669_a_at) / Fold change /veh LINC00158 (11744669_a_at) / RFU DUSP10 (11751237_a_at) / Fold change /veh DUSP10 (11751237_a_at) / RFU ID3 (11757404_x_at) / Fold change /veh ID3 (11757404_x_at) / RFU PLEKHG5 (11737974_s_at) / Fold change /veh PLEKHG5 (11737974_s_at) / RFU LRRC4B (11730491_at) / Fold change /veh LRRC4B (11730491_at) / RFU GIMAP4 (11747438_a_at) / Fold change /veh GIMAP4 (11747438_a_at) / RFU KRT8 (11758183_x_at) / Fold change /veh KRT8 (11758183_x_at) / RFU CNN1 (11734310_a_at) / Fold change /veh CNN1 (11734310_a_at) / RFU VPS37D (11726825_at) / Fold change /veh VPS37D (11726825_at) / RFU C10orf10 (11716522_x_at) / Fold change /veh C10orf10 (11716522_x_at) / RFU KIR2DL2 /// KIR2DL4 /// KIR2DL5A /// KIR2DL5B /// KIR2DS1 /// KIR2DS2 /// KIR2DS3 /// KIR2DS4 /// KIR3DL3 /// KIR3DL3 /// KIR3DS1 (11738374_at) / Fold change /veh KIR2DL2 /// KIR2DL4 /// KIR2DL5A /// KIR2DL5B /// KIR2DS1 /// KIR2DS2 /// KIR2DS3 /// KIR2DS4 /// KIR3DL3 /// KIR3DL3 /// KIR3DS1 (11738374_at) / RFU C1QL1 (11718748_at) / Fold change /veh C1QL1 (11718748_at) / RFU TMPRSS4 (11747572_a_at) / Fold change /veh TMPRSS4 (11747572_a_at) / RFU HAMP (11756126_x_at) / Fold change /veh HAMP (11756126_x_at) / RFU RNFT2 (11725882_a_at) / Fold change /veh RNFT2 (11725882_a_at) / RFU NR4A2 (11747474_a_at) / Fold change /veh NR4A2 (11747474_a_at) / RFU ABCC12 (11746883_a_at) / Fold change /veh ABCC12 (11746883_a_at) / RFU TMEM136 (11760407_x_at) / Fold change /veh TMEM136 (11760407_x_at) / RFU CLDN22 /// WWC2 (11732394_at) / Fold change /veh CLDN22 /// WWC2 (11732394_at) / RFU HLA-DPB1 (11760878_x_at) / Fold change /veh HLA-DPB1 (11760878_x_at) / RFU SPINT1 (11716480_a_at) / Fold change /veh SPINT1 (11716480_a_at) / RFU GAP43 (11754022_s_at) / Fold change /veh GAP43 (11754022_s_at) / RFU A4GNT (11735810_at) / Fold change /veh A4GNT (11735810_at) / RFU PRB3 (11715151_x_at) / Fold change /veh PRB3 (11715151_x_at) / RFU TUBB4B (11761932_at) / Fold change /veh TUBB4B (11761932_at) / RFU CAPN14 (11732068_a_at) / Fold change /veh CAPN14 (11732068_a_at) / RFU TMCC2 (11721928_a_at) / Fold change /veh TMCC2 (11721928_a_at) / RFU IRGQ (11745062_a_at) / Fold change /veh IRGQ (11745062_a_at) / RFU FAM174B (11720279_a_at) / Fold change /veh FAM174B (11720279_a_at) / RFU TMPRSS4 (11748680_a_at) / Fold change /veh TMPRSS4 (11748680_a_at) / RFU FAM212B (11763350_a_at) / Fold change /veh FAM212B (11763350_a_at) / RFU PLEKHG5 (11743358_a_at) / Fold change /veh PLEKHG5 (11743358_a_at) / RFU ZSCAN30 (11745921_a_at) / Fold change /veh ZSCAN30 (11745921_a_at) / RFU CMKLR1 (11741424_a_at) / Fold change /veh CMKLR1 (11741424_a_at) / RFU LOC101060620 /// MAPK8IP1 (11723275_at) / Fold change /veh LOC101060620 /// MAPK8IP1 (11723275_at) / RFU SPTSSB (11747773_x_at) / Fold change /veh SPTSSB (11747773_x_at) / RFU PRSS12 (11739890_at) / Fold change /veh PRSS12 (11739890_at) / RFU BIN1 (11741810_x_at) / Fold change /veh BIN1 (11741810_x_at) / RFU WNT11 (11732464_a_at) / Fold change /veh WNT11 (11732464_a_at) / RFU C10orf10 (11716521_a_at) / Fold change /veh C10orf10 (11716521_a_at) / RFU C5orf56 (11738089_at) / Fold change /veh C5orf56 (11738089_at) / RFU CYB561 (11721691_x_at) / Fold change /veh CYB561 (11721691_x_at) / RFU ANKRD19P (11752326_a_at) / Fold change /veh ANKRD19P (11752326_a_at) / RFU OR2T12 /// OR2T33 /// OR2T8 (11738714_s_at) / Fold change /veh OR2T12 /// OR2T33 /// OR2T8 (11738714_s_at) / RFU VCAN (11748164_a_at) / Fold change /veh VCAN (11748164_a_at) / RFU JSRP1 (11732532_at) / Fold change /veh JSRP1 (11732532_at) / RFU KRTAP10-11 (11738290_x_at) / Fold change /veh KRTAP10-11 (11738290_x_at) / RFU MYO3A (11730013_a_at) / Fold change /veh MYO3A (11730013_a_at) / RFU EBF3 (11725865_a_at) / Fold change /veh EBF3 (11725865_a_at) / RFU CAMK2N1 (11719241_x_at) / Fold change /veh CAMK2N1 (11719241_x_at) / RFU C5orf56 (11738088_a_at) / Fold change /veh C5orf56 (11738088_a_at) / RFU OLFML3 (11715873_a_at) / Fold change /veh OLFML3 (11715873_a_at) / RFU LOC100653217 /// NTM (11731650_a_at) / Fold change /veh LOC100653217 /// NTM (11731650_a_at) / RFU MAPK11 (11762145_a_at) / Fold change /veh MAPK11 (11762145_a_at) / RFU FIZ1 (11724087_x_at) / Fold change /veh FIZ1 (11724087_x_at) / RFU OASL (11726364_x_at) / Fold change /veh OASL (11726364_x_at) / RFU SOX15 (11748057_x_at) / Fold change /veh SOX15 (11748057_x_at) / RFU CD79A (11719716_a_at) / Fold change /veh CD79A (11719716_a_at) / RFU HIST1H1D (11736915_at) / Fold change /veh HIST1H1D (11736915_at) / RFU CASKIN2 (11723855_a_at) / Fold change /veh CASKIN2 (11723855_a_at) / RFU LOC730098 (11760151_x_at) / Fold change /veh LOC730098 (11760151_x_at) / RFU OR4N2 (11742367_at) / Fold change /veh OR4N2 (11742367_at) / RFU PRRT2 (11749266_a_at) / Fold change /veh PRRT2 (11749266_a_at) / RFU SNX32 (11753110_a_at) / Fold change /veh SNX32 (11753110_a_at) / RFU CDHR5 (11726645_a_at) / Fold change /veh CDHR5 (11726645_a_at) / RFU RCAN1 (11760418_a_at) / Fold change /veh RCAN1 (11760418_a_at) / RFU FAM167A (11723789_a_at) / Fold change /veh FAM167A (11723789_a_at) / RFU FAM26E (11764081_at) / Fold change /veh FAM26E (11764081_at) / RFU ISYNA1 (11749810_s_at) / Fold change /veh ISYNA1 (11749810_s_at) / RFU ACY1 (11761880_at) / Fold change /veh ACY1 (11761880_at) / RFU 11764098_at / Fold change /veh 11764098_at / RFU SAMD14 (11745864_x_at) / Fold change /veh SAMD14 (11745864_x_at) / RFU NPB (11741838_a_at) / Fold change /veh NPB (11741838_a_at) / RFU TMPRSS6 (11731388_a_at) / Fold change /veh TMPRSS6 (11731388_a_at) / RFU KRTAP10-2 (11738614_at) / Fold change /veh KRTAP10-2 (11738614_at) / RFU ARHGAP8 /// PRR5-ARHGAP8 (11727945_x_at) / Fold change /veh ARHGAP8 /// PRR5-ARHGAP8 (11727945_x_at) / RFU KRTAP5-7 /// NADSYN1 (11734609_at) / Fold change /veh KRTAP5-7 /// NADSYN1 (11734609_at) / RFU RASL12 (11751679_a_at) / Fold change /veh RASL12 (11751679_a_at) / RFU CDKN2B (11736163_a_at) / Fold change /veh CDKN2B (11736163_a_at) / RFU PRF1 (11729649_at) / Fold change /veh PRF1 (11729649_at) / RFU, ZNF638 /// ZNF638-IT1 / Fold change vs veh, ZNF638 /// ZNF638-IT1 / RFU, PANK3 / Fold change vs veh, PANK3 / RFU, SH3YL1 / Fold change vs veh, SH3YL1 / RFU, ZEB2 / Fold change vs veh, ZEB2 / RFU, NRIP1 / Fold change vs veh, NRIP1 / RFU, PTTG1IP / Fold change vs veh, PTTG1IP / RFU, CAPN2 / Fold change vs veh, CAPN2 / RFU, MED14 / Fold change vs veh, MED14 / RFU, SNORA58 / Fold change vs veh, SNORA58 / RFU, C1orf63 / Fold change vs veh, C1orf63 / RFU, LRRFIP1 / Fold change vs veh, LRRFIP1 / RFU, NDUFAF7 / Fold change vs veh, NDUFAF7 / RFU, SLC12A2 / Fold change vs veh, SLC12A2 / RFU, IBTK / Fold change vs veh, IBTK / RFU, ESF1 / Fold change vs veh, ESF1 / Fold change vs veh, TMEM50B / RFU, TAOK1 / Fold change vs veh, TAOK1 / RFU, ACBD3 / Fold change vs veh, ACBD3 / RFU, TMA16 / Fold change vs veh, TMA16 / RFU, RWDD3 / Fold change vs veh, RWDD3 / RFU, BCAT1 / Fold change vs veh, BCAT1 / RFU, EDEM3 / Fold change vs veh, EDEM3 / RFU, TMEM33 / Fold change vs veh, TMEM33 / RFU, WDR75 / Fold change vs veh, WDR75 / RFU, AHCTF1 / Fold change vs veh, AHCTF1 / RFU, TFRC / Fold change vs veh, TFRC / RFU, ZDHHC17 / Fold change vs veh, ZDHHC17 / RFU, NOM1 / Fold change vs veh, NOM1 / RFU, ARL8B / Fold change vs veh, ARL8B / RFU, ZBTB11 / Fold change vs veh, ZBTB11 / RFU, TAMM41 / Fold change vs veh, TAMM41 / RFU, KIAA1704 /// LOC100996395 / Fold change vs veh, KIAA1704 /// LOC100996395 / RFU, ING1 / Fold change vs veh, ING1 / RFU, TRMT61B / Fold change vs veh, TRMT61B / RFU, FUBP3 / Fold change vs veh, FUBP3 / RFU, TP53 / Fold change vs veh, TP53 / RFU, TNKS2 / Fold change vs veh, TNKS2 / RFU, ZFP14 / Fold change vs veh, ZFP14 / RFU, ACTR2 / Fold change vs veh, ACTR2 / RFU, PPP3R1 / Fold change vs veh, PPP3R1 / RFU, PIK3R1 / Fold change vs veh, PIK3R1 / RFU, HNRNPA1 / Fold change vs veh, HNRNPA1 / RFU, RNF170 / Fold change vs veh, RNF170 / RFU, ZNF28 / Fold change vs veh, ZNF28 / RFU, RNGTT / Fold change vs veh, RNGTT / RFU, OGT / Fold change vs veh, OGT / RFU, BRD1 / Fold change vs veh, BRD1 / RFU, MARS / Fold change vs veh, MARS / RFU, ZNF655 / Fold change vs veh, ZNF655 / RFU, FAHD1 / Fold change vs veh, FAHD1 / RFU, BDP1 / Fold change vs veh, BDP1 / RFU, LRRCC1 / Fold change vs veh, LRRCC1 / RFU, ARID1A / Fold change vs veh, ARID1A / RFU, ZNF146 / Fold change vs veh, ZNF146 / RFU, ZNF330 / Fold change vs veh, ZNF330 / RFU, GPN3 / Fold change vs veh, GPN3 / RFU, C9orf123 / Fold change vs veh, C9orf123 / RFU, N4BP2L2 / Fold change vs veh, N4BP2L2 / RFU, ARFIP1 / Fold change vs veh, ARFIP1 / RFU, FAM179B / Fold change vs veh, FAM179B / RFU, BCL10 / Fold change vs veh, BCL10 / RFU, UHRF1BP1L / Fold change vs veh, UHRF1BP1L / RFU, BET1 / Fold change vs veh, BET1 / RFU, CNOT2 / Fold change vs veh, CNOT2 / RFU, ZNF268 / Fold change vs veh, ZNF268 / Fold change vs veh, ZNF507 / RFU, DGCR2 / Fold change vs veh, DGCR2 / RFU, WDSUB1 / Fold change vs veh, WDSUB1 / Fold change vs veh, HSP90B1 /// MIR3652 / RFU, ADSS / Fold change vs veh, ADSS / RFU, GK / Fold change vs veh, GK / RFU, ZNF148 / Fold change vs veh, ZNF148 / RFU, TAF9 / Fold change vs veh, TAF9 / RFU, SLC1A5 / Fold change vs veh, SLC1A5 / RFU, SLMO2 / Fold change vs veh, SLMO2 / RFU, ABCC4 / Fold change vs veh, ABCC4 / RFU, LOC101060439 /// RAP1B / Fold change vs veh, LOC101060439 /// RAP1B / RFU, RFX7 / Fold change vs veh, RFX7 / RFU, GTPBP10 / Fold change vs veh, GTPBP10 / RFU, CNEP1R1 / Fold change vs veh, CNEP1R1 / RFU, BIVM-ERCC5 /// ERCC5 / Fold change vs veh, BIVM-ERCC5 /// ERCC5 / RFU, ILF3 / Fold change vs veh, ILF3 / RFU 11762660_at / Fold change /veh 11762660_at / RFU VCAN (11757783_s_at) / Fold change /veh VCAN (11757783_s_at) / RFU DDX43 (11728927_at) / Fold change /veh DDX43 (11728927_at) / RFU KRT8 (11758188_x_at) / Fold change /veh KRT8 (11758188_x_at) / RFU NKD1 (11759106_at) / Fold change /veh NKD1 (11759106_at) / RFU SRD5A1 (11742802_a_at) / Fold change /veh SRD5A1 (11742802_a_at) / RFU TPSAB1 /// TPSB2 (11721975_s_at) / Fold change /veh TPSAB1 /// TPSB2 (11721975_s_at) / RFU GSTM3 (11746129_a_at) / Fold change /veh GSTM3 (11746129_a_at) / RFU IL23R (11737362_x_at) / Fold change /veh IL23R (11737362_x_at) / RFU TMEM51 (11727254_a_at) / Fold change /veh TMEM51 (11727254_a_at) / RFU PIWIL2 (11732686_x_at) / Fold change /veh PIWIL2 (11732686_x_at) / RFU ORM1 (11744905_x_at) / Fold change /veh ORM1 (11744905_x_at) / RFU CCDC152 (11743942_at) / Fold change /veh CCDC152 (11743942_at) / RFU ECM1 (11717891_a_at) / Fold change /veh ECM1 (11717891_a_at) / RFU IL23R (11748794_a_at) / Fold change /veh IL23R (11748794_a_at) / RFU TNFAIP8L3 (11732012_x_at) / Fold change /veh TNFAIP8L3 (11732012_x_at) / RFU MBOAT4 (11741988_at) / Fold change /veh MBOAT4 (11741988_at) / RFU 11764193_at / Fold change /veh 11764193_at / RFU TMEM53 (11763286_at) / Fold change /veh TMEM53 (11763286_at) / RFU MAGEB2 (11727129_at) / Fold change /veh MAGEB2 (11727129_at) / RFU TMEM200A (11744735_a_at) / Fold change /veh TMEM200A (11744735_a_at) / RFU CCDC152 (11751479_a_at) / Fold change /veh CCDC152 (11751479_a_at) / RFU FAM211A (11726209_a_at) / Fold change /veh FAM211A (11726209_a_at) / RFU RGS16 (11746705_a_at) / Fold change /veh RGS16 (11746705_a_at) / RFU VCAN (11755009_s_at) / Fold change /veh VCAN (11755009_s_at) / RFU RHOB (11743442_s_at) / Fold change /veh RHOB (11743442_s_at) / RFU RGS16 (11720943_a_at) / Fold change /veh RGS16 (11720943_a_at) / RFU RGS16 (11720944_at) / Fold change /veh RGS16 (11720944_at) / RFU, VPS4B / Fold change vs veh, VPS4B / RFU, CREB1 / Fold change vs veh, CREB1 / RFU, DNAJC13 / Fold change vs veh, DNAJC13 / RFU, GNAQ / Fold change vs veh, GNAQ / RFU, CDK5R1 / Fold change vs veh, CDK5R1 / RFU, ZRANB3 / Fold change vs veh, ZRANB3 / RFU, CUL4A / Fold change vs veh, CUL4A / RFU, CCNY / Fold change vs veh, CCNY / RFU, UFL1 / Fold change vs veh, UFL1 / RFU, COG3 / Fold change vs veh, COG3 / RFU, DIAPH2 / Fold change vs veh, DIAPH2 / RFU, SKA2 / Fold change vs veh, SKA2 / RFU, AFF3 / Fold change vs veh, AFF3 / RFU, LMF1 / Fold change vs veh, LMF1 / RFU, IPO11 / Fold change vs veh, IPO11 / RFU, DFFB / Fold change vs veh, DFFB / RFU, FOXP1 / Fold change vs veh, FOXP1 / RFU, CARD8 / Fold change vs veh, CARD8 / RFU, STRN3 / Fold change vs veh, STRN3 / RFU, ADK / Fold change vs veh, ADK / RFU, RASSF2 / Fold change vs veh, RASSF2 / RFU, WIPF1 / Fold change vs veh, WIPF1 / RFU, LARP1B / Fold change vs veh, LARP1B / RFU, RASA1 / Fold change vs veh, RASA1 / RFU, RB1 / Fold change vs veh, RB1 / RFU, PPFIA1 / Fold change vs veh, PPFIA1 / RFU, MAT2A / Fold change vs veh, MAT2A / RFU, CCT5 / Fold change vs veh, CCT5 / RFU, WDR92 / Fold change vs veh, WDR92 / RFU, CUX1 / Fold change vs veh, CUX1 / RFU, TTC7A / Fold change vs veh, TTC7A / RFU, TMEM135 / Fold change vs veh, TMEM135 / RFU, DEPTOR / Fold change vs veh, DEPTOR / RFU, CPM / Fold change vs veh, CPM / RFU, DNAJB6 / Fold change vs veh, DNAJB6 / RFU, CACNA2D3 / Fold change vs veh, CACNA2D3 / RFU, DTX4 / Fold change vs veh, DTX4 / RFU, TFCP2 / Fold change vs veh, TFCP2 / RFU, GMCL1 /// GMCL1P1 / Fold change vs veh, GMCL1 /// GMCL1P1 / RFU, AEBP2 / Fold change vs veh, AEBP2 / RFU, SNHG1 /// SNORD22 /// SNORD25 /// SNORD26 /// SNORD27 /// SNORD28 /// SNORD29 /// SNORD31 / Fold change vs veh, SNHG1 /// SNORD22 /// SNORD25 /// SNORD26 /// SNORD27 /// SNORD28 /// SNORD29 /// SNORD31 / Fold change (Aza/veh), C12orf56 (ProbeSet 11735607_a_at) / Fold change (ACY-1035/veh), C12orf56 (ProbeSet 11735607_a_at) / Fold change (Aza/veh), FGFR1OP (ProbeSet 11751329_s_at) / Fold change (ACY-1035/veh), FGFR1OP (ProbeSet 11751329_s_at) / Fold change (Aza/veh), VPS36 (ProbeSet 11739960_a_at) / Fold change (ACY-1035/veh), VPS36 (ProbeSet 11739960_a_at) / RFU SYPL1 (11715823_x_at) / Fold change /veh SYPL1 (11715823_x_at) / RFU IGFBP7 (11715501_s_at) / Fold change /veh IGFBP7 (11715501_s_at) / RFU REEP3 (11722064_at) / Fold change /veh REEP3 (11722064_at) / RFU IGLL1 (11728026_x_at) / Fold change /veh IGLL1 (11728026_x_at): dose or concentration left out as unconfirmed
Conditions: ProbeSet 11753055_s_at; LIST B

Nc1ncn([C@@H]2O[C@H](CO)[C@@H](O)[C@H]2O)c(=O)n1 [azacitidine]
RFU, LOC101060439 /// RAP1B: 558.59 RFU

Reference: PMC5218480 (PLoS ONE, 2017)
